Measurements: patent publication US4035485A, “Polypeptides” (Imperial Chemical Industries Limited, priority 1974, dated 1977)

Experiments:
[1] = system: secretion of acidic gastric juice in dogs provided with a Heidenhain pouch and whose gastric secretion is stimulated with histamine; experiment: Inhibition of histamine-stimulated gastric acid secretion in Heidenhain pouch dogs, intravenous injection; type: in vivo, dog; conditions: for biological activity (inhibition of the secretion of acidic gastric juice), in words: dog, histamine-stimulated gastric secretion; for biological potency (amount causing a 50-70% inhibition of acid secretion): intravenous injection, dog with Heidenhain pouch, secretion stimulated to 60-80% of maximum by histamine infusion, expressed as a range of doses; for biological activity, inhibition of gastric secretion: single determination, single intravenous injection
Description: This test is used to determine the biological potency of the products, which is defined as the amount of the products which, on administration by intravenous injection to a dog provided with a Heidenhain pouch and whose secretion of gastric acid is stimulated to 60-80- % of the maximum level of secretion by an infusion of histamine, causes a 50-70% inhibition of that acid secretion. Some variation in the biological potency of a particular sample is found if it is measured in different dogs or on different occasions and so the result is best expressed as a range of doses. The physiological effect of inhibiting the secretion of acidic gastric juice is of value in the treatment of duodenal ulcers, and under the test conditions, no serious toxic effects were observed. The polypeptides of the invention also show ulcer healing properties in a standard test.
In the case of each process involving the use of a chromatography column, the eluate was collected in fractions consisting of a defined number of drops using an Ultrorac LKB 7,000 fraction collector (LKB Instruments Ltd., Croydon, Surrey, U.K.) and these fractions assayed for peptide material by measuring the U.V. absorption at 280 mμ. The material was then collected in fractions and the material assayed for biological activity as follows:
Dogs were prepared with separated denervated fundic pouches, and a subcutaneous infusion of histamine was used to stimulate gastric secretion to approximately 60-80% of the maximal rate [usually an infusion of a solution of 600 μg. of histamine (expressed as base) in 0.48 ml. per hour is adequate]. A known amount of test material was dissolved in isotonic saline and, when the dog was secreting gastric juice at a steady rate, a single intravenous injection of this material was administered.
The biological potency may be determined from the results obtained at several different doses.

[2] = Water solubility of the isolated lyophilized polypeptide; type: physicochemical; conditions: lyophilized white acidic polypeptide

Substance	biological activity (inhibition of the secretion of acidic gastric juice), in words [1]	biological activity (inhibition of the secretion of acidic gastric juice), in words ([1]; listed as polypeptide of the invention)	biological potency (amount causing a 50-70% inhibition of acid secretion) [1]	biological activity, inhibition of gastric secretion ([1]; dose equivalent to 0.6 μg./kg. of starting material)	solubility in water [2]	biological activity, inhibition of gastric secretion ([1]; dose equivalent to 0.7 μg./kg. of starting material)
3: polypeptide of Example 2 in which the cystine residues had been reduced to cysteine residues (NSDSECPLSHDGYCLHDGVCMYIEALDKYACNCVVGYIGERCQYRD; Epidermal growth factor cystines reduced; UniProt P01133 971-1016, looked up, fragment) [Example 3]	potent inhibitors					
Example 2: 46-residue single-chain polypeptide with three internal disulphide bonds, from the 47-residue polypeptide by carboxypeptidase A cleavage of C-terminal leucine (NSDSECPLSHDGYCLHDGVCMYIEALDKYACNCVVGYIGERCQYRD; Epidermal growth factor; UniProt P01133 971-1016, looked up, fragment)	biologically active	potent inhibitors	0.2 to 1 μg./kg.	42%	water soluble	
material in fractions 38-52: peptide cleaved from β-urogastrone by AM protease; ratios Glu 1, Leu 1, Lys 1, Trp 2, Arg 1; N-terminal lysine (KWWELR; Epidermal growth factor; UniProt P01133 1018-1023, looked up, fragment)	biologically inactive					
polypeptide having 47 amino-acid residues: 47-residue single-chain polypeptide with three disulphide bonds obtained by incubating β-urogastrone with AM protease (NSDSECPLSHDGYCLHDGVCMYIEALDKYACNCVVGYIGERCQYRDL; Epidermal growth factor; UniProt P01133 971-1017, looked up, fragment)	biologically active		0.2 to 1 μg./kg.		water soluble	30%
